From the supplement of paper PMC11368000

Legend:
Conditions in all cases: exposure time: 90 min
30145 [1] = donor line of iPSC-derived cardiomyocytes; assay: POD (EC10) for decrease in total cell number (cytotoxicity) vs vehicle; higher = less potent (higher point of departure)
Experimental: (§1)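 Human iPSC-derived cardiomyocytes from 16 donors were exposed for 90 min at 37 °C to each PFAS at 0.1, 1, 10 and 100 µM in 0.5% DMSO, 384-well plates. Kinetic Ca2+ flux (FLIPR) and Hoechst nuclei counts were normalised to vehicle wells and fitted with a hierarchical Bayesian Hill model to give donor-specific PODs: EC05 for beat-rate increase or decrease and for decay-to-rise ratio increase (QT proxy), EC95 for peak-frequency loss (asystole), EC10 for total cell number loss. 0.03 µM is the lower bound.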

1392 [2] = donor line of iPSC-derived cardiomyocytes; assay: as above
Experimental: as §1

1516 [3] = donor line of iPSC-derived cardiomyocytes; assay: as above
Experimental: as §1

20084 [4] = donor line of iPSC-derived cardiomyocytes; assay: as above
Experimental: as §1

20032 = donor line of iPSC-derived cardiomyocytes; assay: POD (EC05) for decrease in beat frequency (negative chronotrope) vs vehicle; higher = less potent (higher point of departure)
Experimental: as §1

30145 [5] = assay: as above
Experimental: as §1

1118 = donor line of iPSC-derived cardiomyocytes; assay: as above
Experimental: as §1

1434 = donor line of iPSC-derived cardiomyocytes; assay: as above
Experimental: as §1

1518 = donor line of iPSC-derived cardiomyocytes; assay: as above
Experimental: as §1

1392 [6] = assay: as above
Experimental: as §1

1083 = donor line of iPSC-derived cardiomyocytes; assay: as above
Experimental: as §1

1368 = donor line of iPSC-derived cardiomyocytes; assay: as above
Experimental: as §1

11235 = donor line of iPSC-derived cardiomyocytes; assay: as above
Experimental: as §1

30171 = donor line of iPSC-derived cardiomyocytes; assay: as above
Experimental: as §1

1516 [7] = assay: as above
Experimental: as §1

1535 = donor line of iPSC-derived cardiomyocytes; assay: as above
Experimental: as §1

1565 = donor line of iPSC-derived cardiomyocytes; assay: as above
Experimental: as §1

20084 [8] = assay: as above
Experimental: as §1

1531 = donor line of iPSC-derived cardiomyocytes; assay: as above
Experimental: as §1

1309 = donor line of iPSC-derived cardiomyocytes; assay: as above
Experimental: as §1

| SMILES | POD vs vehicle 30145 [1] [µM] | POD vs vehicle 1392 [2] [µM] | POD vs vehicle 1516 [3] [µM] | POD vs vehicle 20084 [4] [µM] | POD vs vehicle 20032 [µM] | POD vs vehicle 30145 [5] [µM] | POD vs vehicle 1118 [µM] | POD vs vehicle 1434 [µM] | POD vs vehicle 1518 [µM] | POD vs vehicle 1392 [6] [µM] | POD vs vehicle 1083 [µM] | POD vs vehicle 1368 [µM] | POD vs vehicle 11235 [µM] | POD vs vehicle 30171 [µM] | POD vs vehicle 1516 [7] [µM] | POD vs vehicle 1535 [µM] | POD vs vehicle 1565 [µM] | POD vs vehicle 20084 [8] [µM] | POD vs vehicle 1531 [µM] | POD vs vehicle 1309 [µM] |
| --- | --- | --- | --- | --- | --- | --- | --- | --- | --- | --- | --- | --- | --- | --- | --- | --- | --- | --- | --- | --- |
| O=C(O)C(F)(F)C(F)(F)C(F)(F)C(F)(F)C(=O)O [Octafluoroadipic_acid] | > 100 | 54.6 | > 100 | > 100 | > 100 | > 100 | > 100 | > 100 | > 100 | > 100 | > 100 | > 100 | > 100 | > 100 | > 100 | > 100 | > 100 | > 100 | > 100 | > 100 |
| O=C(O)C(F)(F)C(F)(F)C(F)(F)OC(F)(C(F)(F)F)C(F)(F)F [Perfluoro-4-isopropoxybutanoic_acid] | > 100 | > 100 | > 100 | > 100 | > 100 | > 100 | > 100 | > 100 | > 100 | > 100 | > 100 | > 100 | > 100 | > 100 | > 100 | > 100 | > 100 | > 100 | > 100 | > 100 |
| O=C(O)C(F)(F)C(F)(F)C(F)(F)C(F)(F)F [Perfluoropentanoic_acid] | > 100 | > 100 | > 100 | > 100 | > 100 | > 100 | > 100 | > 100 | > 100 | > 100 | > 100 | > 100 | > 100 | > 100 | > 100 | > 100 | > 100 | > 100 | > 100 | > 100 |
| NC(=O)C(F)(F)C(F)(F)C(F)(F)F [Heptafluorobutyramide] | > 100 | > 100 | > 100 | > 100 | > 100 | > 100 | > 100 | > 100 | > 100 | > 100 | > 100 | > 100 | > 100 | > 100 | > 100 | > 100 | > 100 | > 100 | > 100 | > 100 |
| O=C(O)C(F)(F)C(F)(F)F [Perfluoropropanoic_acid] | > 100 | > 100 | > 100 | > 100 | > 100 | > 100 | > 100 | > 100 | > 100 | > 100 | > 100 | > 100 | > 100 | > 100 | > 100 | > 100 | > 100 | > 100 | > 100 | > 100 |
| NC(=O)C(F)(F)C(F)(F)C(F)(F)C(F)F | > 100 | > 100 | > 100 | > 100 | > 100 | > 100 | > 100 | > 100 | > 100 | > 100 | > 100 | > 100 | > 100 | > 100 | > 100 | > 100 | > 100 | > 100 | > 100 | > 100 |
| OCC(F)(F)C(F)(F)C(F)(F)CO [Hexafluoroamylene_glycol] | > 100 | > 100 | > 100 | > 100 | > 100 | > 100 | > 100 | > 100 | > 100 | > 100 | > 100 | > 100 | > 100 | > 100 | > 100 | > 100 | > 100 | > 100 | > 100 | > 100 |
| O=C(O)C=C(C(F)(F)F)C(F)(F)F [3,3-Bis(trifluoromethyl)-2-propenoic_acid] | > 100 | > 100 | > 100 | > 100 | > 100 | > 100 | > 100 | > 100 | > 100 | > 100 | > 100 | > 100 | > 100 | > 100 | > 100 | > 100 | > 100 | > 100 | > 100 | > 100 |
| O=C(O)C(F)(F)C(F)(F)C(F)(F)C(F)(F)C(F)(F)C(F)(F)C(F)(F)C(F)(F)F [Perfluorononanoic_acid] | > 100 | > 100 | > 100 | > 100 | 27.9 | > 100 | 11 | 20 | 51.1 | > 100 | > 100 | > 100 | 2.8 | 7.86 | 20.4 | 31.8 | > 100 | > 100 | 40.2 | 35.2 |
